Some test systems named below: NCI-H522; CCRF-CEM; OVCAR-5; NCI-H226; MCF7; OVCAR-4; NCI/ADR-RES; MDA-MB-435; SF-295; IGROV-1; SF-268; M14; ACHN; HCT-15; PC-3; HCT-116; SNB-19; K562; SK-MEL-5; UO-31.
What all share (test): NCI anticancer screen, dose series, 48 h

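Cultured in 96-well plates, cells were exposed to test compound for 48 hours across five concentrations. At the GI50, growth is halved.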 The source made the active and inactive calls. Cut-off read from the data, not from the text of the source: active = GI50 up to about 1.1 µM and inactive = higher.

`CCOC(=O)c1c(SC(=O)/C=C/c2ccccc2)n(-c2ccccc2)c(=S)n(-c2ccccc2)c1=O`: the GI50 with NCI-H522, in the experiment with CCRF-CEM, with OVCAR-5, with NCI-H226, in the experiment on MCF7 and with OVCAR-4 was > 100 µM (inactive) in each case. For the same molecule, the GI50 in the experiment on NCI/ADR-RES, with MDA-MB-435, in the experiment with SF-295, with IGROV-1, with SF-268 and in the experiment on M14 was > 100 µM (inactive) in each case. The GI50 in the experiment on ACHN was > 100 µM (inactive); in the experiment on HCT-15, more than 100 µM; in the experiment on PC-3, > 100 µM (inactive); in the experiment on HCT-116, > 100 µM (inactive); in the experiment on SNB-19, > 100 µM (inactive); in the experiment with K562, > 100 µM (inactive).
As for `O=[N+]([O-])c1cccc([N+](=O)[O-])c1Cl`, the GI50 was 12.6 µM (inactive) in the experiment on NCI-H522; 19.1 µM (inactive) in the experiment on OVCAR-5; 27 µM (inactive) in the experiment on NCI-H226; 16.4 µM (inactive) in the experiment with SK-MEL-5; 4.24 µM (inactive) with MCF7; 22.8 µM (inactive) in the experiment on OVCAR-4. Further, the GI50 with NCI/ADR-RES is 21.7 µM (inactive); with MDA-MB-435, 17.9 µM (inactive); with SF-295 it was 16.1 µM (inactive); with IGROV-1, 15.9 µM (inactive); with SF-268 it was 19.4 µM (inactive); with M14, 10.2 µM (inactive). Besides, the GI50 with ACHN is 14.7 µM (inactive); with UO-31 it was 1.32 µM (inactive); in the experiment with HCT-15, 12.1 µM; in the experiment with PC-3, 13.5 µM (inactive); in the experiment on HCT-116 it was 40.6 µM (inactive); in the experiment with SNB-19 it was 13.1 µM (inactive). In the experiment with K562, the GI50 was 5.71 µM (inactive).
Consider `Cc1ccc(-c2c(C#N)c(-c3ccccc3)c(C#N)c(=O)n2NS(=O)(=O)c2ccc(C)cc2)cc1`, for which the GI50 in the experiment on NCI-H522 is 56.9 µM (inactive); in the experiment with CCRF-CEM it was 19.6 µM (inactive); in the experiment with OVCAR-5, > 100 µM (inactive); with NCI-H226 it was 83.9 µM (inactive); in the experiment on SK-MEL-5, 12.6 µM (inactive); in the experiment with MCF7, 35.4 µM (inactive). In addition, the GI50 in the experiment on OVCAR-4 was 45.7 µM (inactive); with NCI/ADR-RES, > 100 µM (inactive); in the experiment on MDA-MB-435, 48.9 µM (inactive); in the experiment with SF-295 it was 24 µM (inactive); with IGROV-1, 48.1 µM (inactive); in the experiment on SF-268 it was > 100 µM (inactive). Further, the GI50 in the experiment with M14 is 31 µM (inactive); in the experiment with ACHN, 33.3 µM (inactive); with HCT-15, 22.2 µM; in the experiment on PC-3 it was 35 µM (inactive); with HCT-116, 22.9 µM (inactive); in the experiment on SNB-19, 5.56 µM (inactive). The GI50 with K562 is 40.3 µM (inactive).
For `Cc1c2cc[n+](CCN3CCCCC3)cc2c(C)c2c1[nH]c1ccc(O)cc12`, the GI50 in the experiment with NCI-H522 was 1.99 µM (inactive); in the experiment with CCRF-CEM it was 1.11 µM (active); in the experiment on OVCAR-5, 10.5 µM (inactive); with SK-MEL-5, 2.54 µM (inactive); in the experiment on MCF7, 1.76 µM (inactive); with OVCAR-4, 1.13 µM (inactive). Further, the GI50 with NCI/ADR-RES is 16.3 µM (inactive); in the experiment with MDA-MB-435, 10.2 µM (inactive); with SF-295, 1.47 µM (inactive); with IGROV-1, 2.89 µM (inactive); with SF-268, 1.4 µM (inactive); with M14, 9.27 µM (inactive). For the same molecule, the GI50 is 5.92 µM (inactive) with ACHN; 17.1 µM (inactive) with UO-31; 12.5 µM with HCT-15; 7.96 µM (inactive) in the experiment with PC-3; 2.58 µM (inactive) with HCT-116; 1.16 µM (inactive) with SNB-19. In the experiment on K562, the GI50 is 2.69 µM (inactive).
For the molecule `CC(C)(CO)N1CCN(C(S)=Nc2ccccc2)CC1`, the GI50 in the experiment on NCI-H522, with OVCAR-5, in the experiment with NCI-H226, with SK-MEL-5, in the experiment on MCF7 and in the experiment on OVCAR-4 was > 100 µM (inactive) throughout. Further, the GI50 with NCI/ADR-RES, in the experiment on MDA-MB-435, in the experiment on SF-295, with IGROV-1, with SF-268 and in the experiment on M14 was > 100 µM (inactive) throughout. For the same molecule, the GI50 is > 100 µM (inactive) in the experiment with ACHN; > 100 µM (inactive) with UO-31; more than 100 µM in the experiment on HCT-15; > 100 µM (inactive) with PC-3; > 100 µM (inactive) in the experiment on HCT-116; > 100 µM (inactive) with SNB-19. In the experiment with K562, the GI50 was 64.3 µM (inactive).
`C/C(=C\C(=N\NC(=N)N)c1ccccc1)c1ccccc1`: the GI50 was 0.452 µM (active) in the experiment with NCI-H522; 0.208 µM (active) with CCRF-CEM; 0.64 µM (active) in the experiment on OVCAR-5; 1.15 µM (inactive) in the experiment on NCI-H226; 0.281 µM (active) in the experiment with SK-MEL-5; 0.321 µM (active) in the experiment with MCF7. Also, the GI50 was 0.321 µM (active) in the experiment with OVCAR-4; 2.78 µM (inactive) with NCI/ADR-RES; 1.24 µM (inactive) in the experiment with MDA-MB-435; 0.409 µM (active) in the experiment with SF-295; 0.432 µM (active) in the experiment on IGROV-1; 0.459 µM (active) with SF-268. The GI50 is 1.17 µM (inactive) with M14; 0.2 µM (active) with ACHN; 1.99 µM in the experiment with HCT-15; 0.313 µM (active) with PC-3; 0.273 µM (active) in the experiment with HCT-116; 1.6 µM (inactive) with SNB-19. Besides, the GI50 in the experiment with K562 was 1.53 µM (inactive).
For the molecule `CCCCCCc1cc2cc(C(=O)NCc3ccccc3)c(=N)oc2cc1O`, the GI50 with NCI-H522, with CCRF-CEM, in the experiment with OVCAR-5, with NCI-H226, in the experiment on SK-MEL-5 and with MCF7 was > 100 µM (inactive) throughout. Moreover, the GI50 with OVCAR-4, with NCI/ADR-RES, in the experiment with MDA-MB-435, with IGROV-1, with SF-268 and in the experiment with M14 was > 100 µM (inactive) each time. The GI50 in the experiment on ACHN is > 100 µM (inactive); in the experiment on HCT-15 it was more than 100 µM; in the experiment with PC-3 it was > 100 µM (inactive); with HCT-116 it was > 100 µM (inactive); with SNB-19 it was > 100 µM (inactive); with K562, > 100 µM (inactive).
Turning to `CCOC(=O)c1sc(=S)n(-c2ccc(Cl)cc2)c1-n1cc(-c2ccccc2)c(C#N)c1N`, the GI50 in the experiment with NCI-H522 is 3.32 µM (inactive); in the experiment on CCRF-CEM, 31.8 µM (inactive); with OVCAR-5, > 100 µM (inactive); in the experiment on NCI-H226 it was 13.6 µM (inactive); in the experiment with SK-MEL-5, 16.3 µM (inactive); with MCF7, 15.7 µM (inactive). For the same molecule, the GI50 with OVCAR-4 was 8.85 µM (inactive); in the experiment with NCI/ADR-RES, 16.9 µM (inactive); in the experiment with MDA-MB-435 it was 41 µM (inactive); in the experiment with SF-295, 13.3 µM (inactive); in the experiment with IGROV-1 it was 15.3 µM (inactive); in the experiment on SF-268, 2.72 µM (inactive). For the same molecule, the GI50 was 53.1 µM (inactive) in the experiment with M14; 16.7 µM (inactive) with ACHN; 42.8 µM in the experiment with HCT-15; 11.8 µM (inactive) with PC-3; 26.1 µM (inactive) in the experiment with HCT-116; 19 µM (inactive) with SNB-19. Also, in the experiment on K562, the GI50 was 44.4 µM (inactive).
`COc1cc2oc3ccccc3c(=O)c2cc1CSc1ccccc1N`: the GI50 with NCI-H522 is 8.89 µM (inactive); with CCRF-CEM, 4.94 µM (inactive); in the experiment with OVCAR-5, > 81.8 µM (inactive); with NCI-H226, 73.6 µM (inactive); with SK-MEL-5 it was 13.5 µM (inactive); in the experiment on MCF7 it was 13.6 µM (inactive). The GI50 in the experiment on OVCAR-4 was 13.6 µM (inactive); in the experiment with NCI/ADR-RES, 6.5 µM (inactive); with MDA-MB-435, 2.47 µM (inactive); in the experiment on SF-295 it was 14.2 µM (inactive); in the experiment on IGROV-1 it was 12 µM (inactive); in the experiment with SF-268, 41.1 µM (inactive). Besides, the GI50 with M14 was 23.2 µM (inactive); in the experiment on ACHN it was 19.5 µM (inactive); in the experiment with HCT-15, 6.95 µM; with PC-3 it was 14.5 µM (inactive); in the experiment on HCT-116 it was 19.5 µM (inactive); with SNB-19, 56.5 µM (inactive). Besides, the GI50 with K562 is 3.91 µM (inactive).
In the case of `OCCSCCCSCCO`, the GI50 in the experiment with NCI-H522 was > 100 µM (inactive); in the experiment on CCRF-CEM, 36.8 µM (inactive); in the experiment with OVCAR-5, > 100 µM (inactive); in the experiment on SK-MEL-5, > 100 µM (inactive); with MCF7, > 100 µM (inactive); in the experiment on OVCAR-4 it was > 100 µM (inactive). The GI50 in the experiment with NCI/ADR-RES was > 100 µM (inactive); in the experiment with MDA-MB-435, > 10 µM (inactive); in the experiment on SF-295 it was > 100 µM (inactive); in the experiment with IGROV-1, > 100 µM (inactive); in the experiment with SF-268 it was > 100 µM (inactive); in the experiment with M14 it was > 100 µM (inactive). Further, the GI50 is > 100 µM (inactive) in the experiment with UO-31; more than 100 µM with HCT-15; > 100 µM (inactive) in the experiment on PC-3; > 100 µM (inactive) in the experiment on HCT-116; > 100 µM (inactive) in the experiment with SNB-19; > 100 µM (inactive) in the experiment with K562.
In the case of `NC(=S)NS(=O)(=O)c1ccc(Cl)cc1`, the GI50 with NCI-H522, in the experiment on CCRF-CEM, in the experiment on OVCAR-5, with NCI-H226, in the experiment on SK-MEL-5 and with MCF7 was > 100 µM (inactive) each time. Besides, the GI50 with OVCAR-4, in the experiment with NCI/ADR-RES, with MDA-MB-435, in the experiment on SF-295, with IGROV-1 and in the experiment on SF-268 was > 100 µM (inactive) throughout. The GI50 in the experiment with M14 was > 100 µM (inactive); in the experiment on ACHN it was > 100 µM (inactive); with HCT-15, more than 100 µM; in the experiment with PC-3 it was > 100 µM (inactive); in the experiment on HCT-116, > 100 µM (inactive); with SNB-19, > 100 µM (inactive). Moreover, the GI50 in the experiment on K562 is > 100 µM (inactive).

Source of the values: ChEMBL document CHEMBL1201862, “PubChem BioAssay data set” (2004).
